Consider 33 compounds from publication PMC8725971, “Polycyclic nitrogen heterocycles as potential thymidine phosphorylase inhibitors: synthesis, biological evaluation, and molecular docking study” (Journal of Enzyme Inhibition and Medicinal Chemistry, 2021).

Values after ≈ are worked out from the molar mass of the structure shown. Where a name gives a salt, the structure may show the parent alone.

Data set [1] deals with T1, E. coli TP (Escherichia coli, UniProt P07650).
T1 construct: purchased Sigma Aldrich T2807-1KU
In words: In vitro E. coli thymidine phosphorylase inhibition, spectrophotometric assay at 290 nm. As to conditions: for inhibition at 15 µM: compound at 15 µM (maximum solubility); for inhibition at 30 µM: read-out: TP inhibition (%) at maximum solubility (30 µM); for inhibition at 25 µM: compound at 25 µM (maximum solubility). The class given is biochemical. On the procedure:
The adopted protocol is a modification of the original method developed by Khan[51]. TP activity and inhibition assays were based on the phosphorolysis of thymidine to thymine, this conversion results in a significant spectrophotometric decrease. At 290 nm and pH 7.4, thymidine has a higher extinction coefficient than thymine (Δε = −480 M^−1 cm^−1). The absorbance at 290 nm was measured every 2 min for 30 min in 96-well plates at 25 °C.
Thymidine was dissolved in buffer (3 mM). […] All experiments were conducted in triplicate.
The method reported by Khan et al.[51] has been adapted to a screening in 96-well plates (200 µL well, UV-Star® 96-well microplate, Greiner). Each well contained 160 µL of 50 mM KH2PO4 buffer (pH 7.4), 0.006 U of E. coli TP (T2807-1KU, Sigma Aldrich), and 20 µL of the tested compound solution. […] The decrease in absorbance due to conversion of thymidine to thymine was followed during 30 min (PowerWave HT Microplate Reader, Biotek) at 25 °C, with one measure every 2 min and a 30 s shaking before each measure.

Data set [2] is described as follows: Solubility in the incubation medium. As to conditions: for solubility: aqueous buffer, kinetic from dmso stock; for Solubility (in words): incubation medium.
The mark [3] stands for this setting: compound at 50 µM, 2.5% DMSO, average of three measurements.

T1 sequence (P07650 whole entry): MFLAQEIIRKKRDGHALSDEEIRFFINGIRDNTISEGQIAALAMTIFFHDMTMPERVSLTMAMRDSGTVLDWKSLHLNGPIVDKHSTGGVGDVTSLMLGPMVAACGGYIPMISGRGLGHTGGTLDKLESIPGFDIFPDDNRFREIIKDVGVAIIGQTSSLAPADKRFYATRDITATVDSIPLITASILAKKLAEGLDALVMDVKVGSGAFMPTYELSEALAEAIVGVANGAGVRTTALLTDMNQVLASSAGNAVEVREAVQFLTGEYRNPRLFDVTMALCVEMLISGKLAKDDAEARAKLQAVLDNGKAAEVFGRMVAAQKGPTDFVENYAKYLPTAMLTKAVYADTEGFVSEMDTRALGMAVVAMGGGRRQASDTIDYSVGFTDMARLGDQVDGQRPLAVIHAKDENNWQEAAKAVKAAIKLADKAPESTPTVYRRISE

As a reminder, the melting point is the temperature, or range, at which the solid turns liquid. What is called inhibition is the percentage by which the read-out fell short of the control. The compound `Cc1cn(CCCCN2C(=O)c3cc4cc5c(cc4nc3C2=O)OCO5)c(=O)[nH]c1=O` [Compound 13a, 2-[4-(2,4-Dioxo-5-methyl-3,4-dihydropyrimidine-1(2H)-yl)butyl]-6,7-methylenedioxy-2H-pyrrolo[3,4-b]quinoline-1,3-dione] yielded a melting point of 302 °C. 50 µM produced 25% inhibition in data set [1] (setting [3]).

In turn, `O=C1c2cc3c(=O)[nH]c(=O)[nH]c3nc2C(=O)N1CCc1ccccc1` [Compound 28e, 7-Phenylethyl-1H-pyrrolo[3′,4′:5,6]pyrido[2,3-d]pyrimidine-2,4,6,8(3H,7H)-tetraone] displayed a melting point of 359 to 361 °C. In data set [1] (setting [3]), this compound gave an inhibition at 50 µM of 0%.

One may read the solubility as how much of the substance goes into solution per volume. Read a low solubility as little dissolved substance. On to `O=C1c2cc3cc4c(cc3nc2C(=O)N1Cc1cc(=O)[nH]c(=O)[nH]1)OCO4` [Compound 22, 2-[(2,6-Dioxo-1,2,3,6-tetrahydropyrimidin-4-yl)methyl]-6,7-methylenedioxy-1H-pyrrolo[3,4-b]quinoline-1,3(2H)-dione], for which the melting point was 407 to 409 °C (dec.). Besides, in data set [1] (2.5% DMSO), testing at 15 µM gave an inhibition of 25%. In addition, in data set [2], the concentration in solution (solubility) came to 15 µM (≈ 5.49 µg/mL) and the “Solubility (in words)” value is on record as “less soluble”.

For `O=c1[nH]c(=O)c2cc3ccc4ccccc4c3nc2[nH]1` [Compound 2n, Benzo[h]pyrimido[4,5-b]quinoline-8,10(9H,11H)-dione)], the melting point fell in the range of 326 to 328 °C. The compound also returned an inhibition at 15 µM in data set [1] (2.5% DMSO) of 0%. In data set [2], the concentration in solution (solubility) was 15 µM (≈ 3.95 µg/mL) and the “Solubility (in words)” value is reported as “less soluble”.

With `O=C1c2cc3c(=O)[nH]c(=O)[nH]c3nc2C(=O)N1Cc1ccc(Cl)cc1Cl` [Compound 28d], in data set [1], the inhibition at 30 µM worked out at 0%. In data set [2], this compound returned a solubility of 30 µM (≈ 11.7 µg/mL).

In data set [1] (setting [3]), `Cc1cccc2cc3c(=O)[nH]c(=O)[nH]c3nc12` [Compound 2c] came in with an inhibition at 50 µM of 14%.

As for `COc1cc2nc3[nH]c(=O)[nH]c(=O)c3cc2c(OC)c1OC` [Compound 2h], the inhibition at 15 µM in data set [1] (2.5% DMSO) was 0%. In data set [2], the solubility is 15 µM (≈ 4.55 µg/mL) and the “Solubility (in words)” value was “sparingly soluble”.

In data set [1] (setting [3]), `Cc1c2cc3c(cc2nc2[nH]c(=O)[nH]c(=O)c12)OCO3` [Compound 2q] yielded an inhibition at 50 µM of 0%.

For `O=C1c2cc3cc4c(cc3nc2C(=O)N1Cc1[nH]c(=O)[nH]c(=O)c1Cl)OCO4` [Compound 23a, 2-[(5-Chloro-2,6-dioxo-1,2,3,6-tetrahydropyrimidin-4-yl)methyl]-6,7-methylenedioxy-1H-pyrrolo[3,4-b]quinoline-1,3(2H)-dione], the melting point is 352 to 354 °C (dec.). This compound also displayed an inhibition at 50 µM in data set [1] (setting [3]) of 0%.

`O=c1[nH]c(=O)c2cc[nH]c2[nH]1` [Compound 7-DX, 7-Deazaxanthine, reference compound] showed an inhibition at 50 µM in data set [1] (setting [3]) of 60%.

`O=C1c2cc3cc4c(cc3nc2C(=O)N1CCCCCCn1cc(Br)c(=O)[nH]c1=O)OCO4` [Compound 16b, 2-[6-(5-Bromo-2,4-dioxo-3,4-dihydropyrimidine-1(2H)-yl)hexyl]-6,7-methylenedioxy-2H-pyrrolo[3,4-b]quinoline-1,3-dione]: the melting point lay within 282 to 283 °C. This compound also came in with an inhibition at 12.5 µM in data set [1] (compound at 12.5 µM (maximum solubility), 2.5% DMSO) of 30%. In addition, in data set [2], the concentration in solution (solubility) came to 12.5 µM (≈ 6.44 µg/mL) and the “Solubility (in words)” value is reported as “less soluble”.

As to `O=C1c2cc3c(=O)[nH]c(=O)[nH]c3nc2C(=O)N1Cc1cccnc1` [Compound 28f, 7-(Pyridin-3-ylmethyl)-1H-pyrrolo[3′,4′:5,6]pyrido[2,3-d]pyrimidine-2,4,6,8(3H,7H)-tetraone], the melting point is more than 360 °C. Moreover, the inhibition at 50 µM in data set [1] (setting [3]) came out at 0%.

`CCC(CCCn1c(=O)c(Br)cn(C(CC)CCCN2C(=O)c3cc4cc5c(cc4nc3C2=O)OCO5)c1=O)n1cc(Br)c(=O)[nH]c1=O` (stereo not shown) [Compound 17, 2-[4-[5-Bromo-3-[4-(5-bromo-2,4-dioxo-3,4-dihydropyrimidine-1(2H)-yl)hexyl]-2,4-dioxo-3,4-dihydropyrimidine-1(2H)-yl]hexyl]-6,7-méthylènedioxy-2H-pyrrolo[3,4-b]quinoline-1,3-dione] came in with a melting point of 144 to 148 °C.

Take `COc1cc(-c2c3cc4c(cc3nc3[nH]c(=O)[nH]c(=O)c23)OCO4)cc(OC)c1OC` [Compound 2r]: 25 µM produced 0% inhibition in data set [1] (2.5% DMSO). Besides, the solubility in data set [2] turned out to be 25 µM (≈ 10.6 µg/mL).

For `O=c1[nH]c(=O)c2cc3ccc(C(F)(F)F)cc3nc2[nH]1` [Compound 2k], the inhibition at 50 µM in data set [1] (setting [3]) is 0%.

Take `Cc1ccc2nc3[nH]c(=O)[nH]c(=O)c3cc2c1` [Compound 2a]: the inhibition at 50 µM in data set [1] (setting [3]) was determined as 0%.

For the compound `O=C1c2cc3cc4c(cc3nc2C(=O)N1CCCCn1cc(Br)c(=O)[nH]c1=O)OCO4` [Compound 16a, 2-[4-(5-Bromo-2,4-dioxo-3,4-dihydropyrimidine-1(2H)-yl)butyl]-6,7-methylenedioxy-2H-pyrrolo[3,4-b]quinoline-1,3-dione], the melting point came out at 276 °C. Moreover, the inhibition at 25 µM in data set [1] (2.5% DMSO) was determined as 30%. Besides, in data set [2], the concentration in solution (solubility) was 25 µM (≈ 12.2 µg/mL) and the “Solubility (in words)” value was “less soluble”.

With `O=c1[nH]c(=O)c2cc3ccc4cc5ccccc5cc4c3nc2[nH]1` [Compound 2o, Naphto[2,3-h]pyrimido[4,5-b]quinoline-2,4(1H,3H)-dione], the melting point was more than 360 °C. In addition, at 25 µM the inhibition in data set [1] (2.5% DMSO) was 0%. In data set [2], the solubility was found to be 25 µM (≈ 7.83 µg/mL) and the “Solubility (in words)” value was “less soluble”.

With `COc1ccc(CN2C(=O)c3cc4c(=O)[nH]c(=O)[nH]c4nc3C2=O)c(OC)c1` [Compound 28b], the inhibition at 50 µM in data set [1] (setting [3]) worked out at 0%.

Consider `O=C1c2cc3c(=O)[nH]c(=O)[nH]c3nc2C(=O)N1CC1CCCCC1` [Compound 28g], for which the inhibition at 30 µM in data set [1] turned out to be 0%. Also, the solubility in data set [2] is 30 µM (≈ 9.85 µg/mL).

In the case of `O=C1c2cc3cc4c(cc3nc2C(=O)N1Cc1ccccc1)OCO4` [Compound 24, 6,7-Methylenedioxy-2-benzylpyrrolo[3,4-b]quinoline-1,3-dione], the melting point was 191 to 193 °C. Also, the inhibition at 50 µM in data set [1] (setting [3]) came to 20%.

`O=c1[nH]c(=O)c2cc3ccc(Cl)cc3nc2[nH]1` [Compound 2j] gave an inhibition at 50 µM in data set [1] (setting [3]) of 0%. The solubility in data set [2] amounted to 50 µM (≈ 12.4 µg/mL).

Take “2-[4-(2,4-Dioxo-5-methyl-3,4-dihydropyrimidine-1(2H)-yl)hexyl]-6,7-methylenedioxy-2H-pyrrolo[3,4-b]quinoline-1,3-dione [Compound 13b]”: the “TP inhibition (%) at 50 µM” value in data set [1] (setting [3]) was determined as 0% at 50 µM.

For `O=c1[nH]c(=O)c2cc3c(ccc4ccccc43)nc2[nH]1` [Compound 2m], testing at 50 µM in data set [1] (setting [3]) gave an inhibition of 29%.

For `Cc1ccc2cc3c(=O)[nH]c(=O)[nH]c3nc2c1` [Compound 2b], testing at 50 µM in data set [1] (setting [3]) gave an inhibition of 0%.

On to `O=c1[nH]c(=O)c2cc3ccc(Cc4ccccc4)cc3nc2[nH]1` [Compound 2i, 8-Benzylpyrimido[4,5-b]quinoline-2,4(1H,3H)-dione], for which the melting point is 297 to 299 °C (dec.). The inhibition at 50 µM in data set [1] (setting [3]) came out at 30%. For the same compound, the solubility in data set [2] stood at 50 µM (≈ 15.2 µg/mL).

`CN(C)CCCN1C(=O)c2cc3c(=O)[nH]c(=O)[nH]c3nc2C1=O` [Compound 28h, 7-(3-(Dimethylamino)propyl)-1H-pyrrolo[3′,4′:5,6]pyrido [2,3-d]pyrimidine-2,4,6,8 (3H,7H)-tetraone, hydrochloride]: testing at 50 µM in data set [1] (setting [3]) gave an inhibition of 0%.

Turning to `O=c1[nH]c(=O)c2cc3ccc(Oc4ccccc4)cc3nc2[nH]1` [Compound 2e, 8-Phenoxypyrimido[4,5-b]quinoline-2,4(1H,3H)-dione], the melting point is 334 to 336 °C (dec.). Moreover, the inhibition at 50 µM in data set [1] (setting [3]) amounted to 30%. The concentration in solution in data set [2] (solubility) was 50 µM (≈ 15.3 µg/mL).

On to `CN(C)c1c2cc3c(cc2nc2[nH]c(=O)[nH]c(=O)c12)OCO3` [Compound 2s, 5-Dimethylamino-7,8-methylenedioxypyrimido[4,5-b]quinoline-2,4(1H,3H)-dione], for which the melting point is 348 °C. The compound also registered an inhibition at 15 µM in data set [1] (2.5% DMSO) of 0%. Moreover, in data set [2], the concentration in solution (solubility) came to 15 µM (≈ 4.5 µg/mL).

`O=c1[nH]c(=O)c2cc3ccc(OCc4ccccc4)cc3nc2[nH]1` [Compound 2f]: the inhibition at 50 µM in data set [1] (setting [3]) came to 0%. Besides, the concentration in solution in data set [2] (solubility) came to 50 µM (≈ 16 µg/mL).

Compound `O=C1NC(=O)c2nc3[nH]c(=O)[nH]c(=O)c3cc21` [Compound 27] returned an inhibition at 50 µM in data set [1] (setting [3]) of 0%.

On to `O=C1c2cc3cc4c(cc3nc2C(=O)N1Cc1[nH]c(=O)[nH]c(=O)c1I)OCO4` [Compound 23c, 2-[(5-Iodo-2,6-dioxo-1,2,3,6-tetrahydropyrimidin-4-yl)methyl]-6,7-methylenedioxy-1H-pyrrolo[3,4-b]quinoline-1,3(2H)-dione], for which the melting point was 365 to 367 °C (dec.). Further, in data set [1] (setting [3]), the inhibition at 50 µM turned out to be 0%.

As for `CN(C)CCCN1C(=O)c2cc3c(=O)[nH]c(=O)[nH]c3nc2C1=O` (as salt: hydrochloride) [Compound 28h, 7-(3-(Dimethylamino)propyl)-1H-pyrrolo[3′,4′:5,6]pyrido [2,3-d]pyrimidine-2,4,6,8 (3H,7H)-tetraone, hydrochloride], the melting point fell in the range of 309 to 311 °C.
